The test system of data set [1] is MX-1 (human breast carcinoma) cells. Briefly: In vitro growth inhibition (cytotoxicity, CellTiter Blue Cell Viability Assay). The settings on record: cells exposed 72 hr. The class given is cell-based. The protocol: A cytotoxicity assay was quantitated using the Promega CellTiter Blue Cell Viability Assay. Briefly, cells (5000 cells/well) were plated onto 96-well microtiter plates in RPMI 1640 medium supplemented with 10% FBS and incubated at 37° C. in a humidified 5% CO2 atmosphere. After 24 hr., cells were exposed to various concentrations of hydrophobic taxane derivative in DMSO and cultured for another 72 hr, 100 uL of media were removed and 20 uL of Promega CellTiter Blue reagent were added to each well and shaken to mix. After 4 hours of incubation at 37° C. in a humidified 5% CO2 atmosphere, the plates were read at 544 ex/620 em. The fluorescence produced is proportional to the number of viable cells. After plotting fluorescence produced against drug concentration, the IC50 was calculated as the […] of the resulting non-linear regression.

A short description of data set [2]: Log P of hydrophobic taxane derivatives. In kind it is physicochemical. The settings on record: method not stated.
Data set [3] in a line: Pharmacokinetics of Nab-2 in monkeys. In kind it is in vivo. The note with it: cynomolgus monkey; for AUCINF/D / Cmax/D / HL_Lambda_z / AUC(0-inf) / Cmax / Tmax / concentration at 0 hr / concentration at […] / concentration at 0.25 hr / concentration at 0.5 hr / concentration at 1 hr / concentration at 2 hr / concentration at 8 hr: label = analyte; for clearance / AUC(0-inf) / Cmax / Tmax / concentration at 0 hr / concentration at […] / concentration at 0.25 hr / concentration at 0.5 hr / concentration at 1 hr / concentration at 2 hr / concentration at 8 hr / Vd: male, blood; for concentration at […]: time 0.083 hr; for Vd: iv. The source says: The day of the initial dose administration was designated Study Day 1, with subsequent days consecutively numbered. Days on study prior to the initial dose administration were consecutively numbered with the final day of acclimation referenced as day −1.
Three non-naïve, male cynomolgus monkeys, confirmed to have no prior exposure to albumin, were assigned to dose groups as specified in Table 6 shown below. Animals weighed 5.4-6.7 kg and were 4 to 7 years of age at study initiation.
All animals were dosed once weekly, on days 1, 8 and 15. Animals in Groups 3 and 4 were administered Nab-2 (lot: ABI139-2-83) at 5 and 10 mg/kg, respectively, and the Group 5 animal was administered Nab-2 at 20, 10 and 10 mg/kg (on days 1, 8 and 15, respectively) via 30 minute intravenous infusion. Clinical observations were performed twice daily and body weights were recorded weekly throughout the study.

SMILES strings stand for the structures. Read-outs that look alike come from different tables or passages of the source.

The compound `CCCCCC(=O)O[C@@H](C(=O)O[C@H]1C[C@@]2(O)[C@@H](OC(=O)c3ccccc3)C3[C@](C)(C(=O)[C@H](O)C(=C1C)C2(C)C)[C@@H](O)C[C@H]1OC[C@@]31OC(C)=O)[C@@H](NC(=O)OC(C)(C)C)c1ccccc1` (stereo partly drawn) [Compound 2, 2′-Hexanoyl Docetaxel] displayed a half-inhibitory concentration (IC50) in data set [1] of 103 µM. The compound also returned a lipophilicity (logP) in data set [2] of 6.44. In data set [3] (Nab-2 IV 5 mg/kg), this compound gave an AUCINF/D of 723 kg·ng·h/mL/mg, a Cmax/D of 215 kg·ng/mL/mg, an HL_Lambda_z of 3.6 h and a clearance of 23.1 mL/min/kg. Moreover, in data set [3] (Nab-2 IV 5 mg/kg), the AUC(0-inf) was 3610 ng·h/mL, the Cmax stood at 1070 ng/mL, the time of peak concentration (Tmax) was determined as 4.98 min and the concentration at 0 hr amounted to 0 ng/mL. In data set [3] (Nab-2 IV 5 mg/kg), this compound gave a concentration at […] of 1070 ng/mL, a concentration at 0.25 hr of 940 ng/mL, a concentration at 0.5 hr of 774 ng/mL and a concentration at 1 hr of 534 ng/mL. Besides, in data set [3] (Nab-2 IV 5 mg/kg), the concentration at 2 hr is 422 ng/mL and the concentration at 8 hr came to 136 ng/mL. For the same compound, in data set [3] (Nab-2 IV 10 mg/kg), the AUCINF/D turned out to be 535 kg·ng·h/mL/mg, the Cmax/D is 155 kg·ng/mL/mg, the HL_Lambda_z was determined as 3.7 h and the clearance is 31.2 mL/min/kg. Besides, in data set [3] (Nab-2 IV 10 mg/kg), the total exposure AUC(0-inf) turned out to be 5350 ng·h/mL, the maximum concentration (Cmax) was 1550 ng/mL, the Tmax amounted to 4.98 min and the concentration at 0 hr is 0 ng/mL. In data set [3] (Nab-2 IV 10 mg/kg), the concentration at […] worked out at 1550 ng/mL, the concentration at 0.25 hr was determined as 1300 ng/mL, the concentration at 0.5 hr came to 936 ng/mL and the concentration at 1 hr stood at 734 ng/mL. In data set [3] (Nab-2 IV 10 mg/kg), this compound yielded a concentration at 2 hr of 657 ng/mL and a concentration at 8 hr of 202 ng/mL. In data set [3] (Nab-2 IV 20 mg/kg), this compound showed an AUCINF/D of 393 kg·ng·h/mL/mg, a Cmax/D of 131 kg·ng/mL/mg, an HL_Lambda_z of 3.0 h and a clearance of 42.4 mL/min/kg. In addition, in data set [3] (Nab-2 IV 20 mg/kg), the total exposure AUC(0-inf) turned out to be 7860 ng·h/mL, the maximum concentration (Cmax) turned out to be 2620 ng/mL, the time of peak concentration (Tmax) worked out at 15 min and the concentration at 0 hr was found to be 0 ng/mL. Moreover, in data set [3] (Nab-2 IV 20 mg/kg), the concentration at […] stood at 2390 ng/mL, the concentration at 0.25 hr worked out at 2620 ng/mL, the concentration at 0.5 hr was 1820 ng/mL and the concentration at 1 hr was 1370 ng/mL. In data set [3] (Nab-2 IV 20 mg/kg), this compound came in with a concentration at 2 hr of 958 ng/mL and a concentration at 8 hr of 264 ng/mL. The Vd in data set [3] (5 mg/kg, Nab-2 IV 5 mg/kg, read-out: Vss) came out at 5.84 L/kg. Also, the Vd in data set [3] (5 mg/kg, Nab-2 IV 5 mg/kg, read-out: Vz) came out at 7.18 L/kg. Moreover, the Vd in data set [3] (10 mg/kg, Nab-2 IV 10 mg/kg, read-out: Vss) is 8.12 L/kg. The Vd in data set [3] (10 mg/kg, Nab-2 IV 10 mg/kg, read-out: Vz) stood at 9.93 L/kg. For the same compound, the Vd in data set [3] (20 mg/kg, Nab-2 IV 20 mg/kg, read-out: Vss) is 8.74 L/kg. Also, the Vd in data set [3] (20 mg/kg, Nab-2 IV 20 mg/kg, read-out: Vz) came out at 11.2 L/kg. The Vd in data set [3] (Nab-2 IV 5-20 mg/kg, read-out: volume of distribution Vz) fell in the range of 7 to 11 L/kg.
`CC(=O)O[C@@]12CO[C@@H]1C[C@H](O)[C@@]1(C)C(=O)[C@H](O)C3=C(C)[C@@H](OC(=O)[C@H](OC(=O)c4ccccc4)[C@@H](NC(=O)OC(C)(C)C)c4ccccc4)C[C@@](O)([C@@H](OC(=O)c4ccccc4)C12)C3(C)C` (stereo partly drawn) [Compound 1, 2′-Benzoyl-Docetaxel] displayed an IC50 in data set [1] of 38.4 µM. The same compound came in with a logP in data set [2] of 6.67.
On to `CCC(=O)O[C@@H](C(=O)O[C@H]1C[C@@]2(O)[C@@H](OC(=O)c3ccccc3)C3[C@](C)(C(=O)[C@H](O)C(=C1C)C2(C)C)[C@@H](O)C[C@H]1OC[C@@]31OC(C)=O)[C@@H](NC(=O)OC(C)(C)C)c1ccccc1` (stereo partly drawn) [Compound 5, 2′-Propionyl-Docetaxel], for which the IC50 in data set [1] is 209 µM. In data set [2], this compound gave a lipophilicity (logP) of 5.31.
With `CCCCC(=O)O[C@@H](C(=O)O[C@H]1C[C@@]2(O)[C@@H](OC(=O)c3ccccc3)C3[C@](C)(C(=O)[C@H](O)C(=C1C)C2(C)C)[C@@H](O)C[C@H]1OC[C@@]31OC(C)=O)[C@@H](NC(=O)OC(C)(C)C)c1ccccc1` (stereo partly drawn) [Compound 4, 2′-Valeryl-Docetaxel], in data set [1], the IC50 was 211 µM. This compound registered a logP in data set [2] of 6.37.
Consider `CC(=O)O[C@@]12CO[C@@H]1C[C@H](O)[C@@]1(C)C(=O)[C@H](O)C3=C(C)[C@@H](OC(=O)[C@H](O)[C@@H](NC(=O)OC(C)(C)C)c4ccccc4)C[C@@](O)([C@@H](OC(=O)c4ccccc4)C12)C3(C)C` (stereo partly drawn) [Docetaxel, docetaxel, reference compound], for which, in data set [2], the log partition coefficient (Log P) is given as 4.20. Further, in data set [3] (Nab-2 IV 5 mg/kg), the AUCINF/D was found to be 35 kg·ng·h/mL/mg, the Cmax/D is 8 kg·ng/mL/mg, the HL_Lambda_z was 1.4 h and the area under the curve AUC(0-inf) stood at 175 ng·h/mL. Also, in data set [3] (Nab-2 IV 5 mg/kg), the highest level (Cmax) was 41 ng/mL, the Tmax was determined as 15 min, the concentration at 0 hr was found to be 0 ng/mL and the concentration at […] came to 36.7 ng/mL. In addition, in data set [3] (Nab-2 IV 5 mg/kg), the concentration at 0.25 hr was 40.7 ng/mL, the concentration at 0.5 hr turned out to be 35.5 ng/mL, the concentration at 1 hr worked out at 32.1 ng/mL and the concentration at 2 hr came to 34.1 ng/mL. The compound further registered a concentration at 8 hr in data set [3] (Nab-2 IV 5 mg/kg) of 1.15 ng/mL. Moreover, in data set [3] (Nab-2 IV 10 mg/kg), the AUCINF/D was 31 kg·ng·h/mL/mg, the Cmax/D was 10 kg·ng/mL/mg, the HL_Lambda_z was 3.2 h and the AUC(0-inf) was 314 ng·h/mL. In data set [3] (Nab-2 IV 10 mg/kg), this compound showed a maximum concentration (Cmax) of 99 ng/mL, a concentration at 0 hr of 0 ng/mL, a concentration at […] of 99.4 ng/mL and a concentration at 0.25 hr of 70.1 ng/mL. In data set [3] (Nab-2 IV 10 mg/kg), this compound showed a concentration at 0.5 hr of 63.4 ng/mL, a concentration at 1 hr of 47.5 ng/mL, a concentration at 2 hr of 44.2 ng/mL and a concentration at 8 hr of 0 ng/mL. In data set [3] (Nab-2 IV 20 mg/kg), this compound displayed an AUCINF/D of 20 kg·ng·h/mL/mg, a Cmax/D of 19 kg·ng/mL/mg, an HL_Lambda_z of 1.4 h and an AUC(0-inf) of 394 ng·h/mL. In data set [3] (Nab-2 IV 20 mg/kg), this compound came in with a Cmax of 382 ng/mL, a concentration at 0 hr of 0 ng/mL, a concentration at […] of 382 ng/mL and a concentration at 0.25 hr of 232 ng/mL. In data set [3] (Nab-2 IV 20 mg/kg), this compound displayed a concentration at 0.5 hr of 157 ng/mL, a concentration at 1 hr of 90.5 ng/mL, a concentration at 2 hr of 69.2 ng/mL and a concentration at 8 hr of 0 ng/mL.
In data set [1], `CCCCCCCCCC(=O)O[C@@H](C(=O)O[C@H]1C[C@@]2(O)[C@@H](OC(=O)c3ccccc3)C3[C@](C)(C(=O)[C@H](O)C(=C1C)C2(C)C)[C@@H](O)C[C@H]1OC[C@@]31OC(C)=O)[C@@H](NC(=O)OC(C)(C)C)c1ccccc1` (stereo partly drawn) [Compound 3, 2′-Decanoyl-Docetaxel] displayed an IC50 of 8.8 µM.

By IC50 is commonly meant the concentration at which inhibition is half-maximal. The term logP denotes the decadic logarithm of the partition coefficient of the neutral form, usually between octanol and water. Usually clearance stands for the rate of elimination divided by the concentration. By AUC(0-inf) is commonly meant total exposure, with the tail of the curve extrapolated. A word on the Cmax: it is the highest concentration seen after dosing. As a reminder, the Tmax is the time from dosing to the highest level. A word on the Log P: it is the decadic logarithm of the partition coefficient of the neutral form, usually between octanol and water.
